Source: publication PMC8698320, “Inhibition of MurA Enzyme from Escherichia coli and Staphylococcus aureus by Diterpenes from Lepechinia meyenii and Their Synthetic Analogs” (Antibiotics, 2021)
Values after ≈ are worked out from the molar mass of the structure shown. Values joined by “and” are separate entries in the source; they are usually repeats but may differ in a detail not shown here. Equal entries are not always repeated. Where two headings read alike, the source gives them in different places.

Tests used:
[1] = test system: methicillin-sensitive and resistant Staphylococcus aureus (MSSA and MRSA); settings: growth curves of treated MSSA and MRSA; cited from earlier work
[2] = molecular target: T1, Staphylococcus aureus MurA (Staphylococcus aureus, UniProt Q931H5); assay: biochemical; settings: for remaining activity at 100 µM: 10 min
T1 construct: made in house; host or cells: E. coli
T1 sequence (Q931H5 1-421): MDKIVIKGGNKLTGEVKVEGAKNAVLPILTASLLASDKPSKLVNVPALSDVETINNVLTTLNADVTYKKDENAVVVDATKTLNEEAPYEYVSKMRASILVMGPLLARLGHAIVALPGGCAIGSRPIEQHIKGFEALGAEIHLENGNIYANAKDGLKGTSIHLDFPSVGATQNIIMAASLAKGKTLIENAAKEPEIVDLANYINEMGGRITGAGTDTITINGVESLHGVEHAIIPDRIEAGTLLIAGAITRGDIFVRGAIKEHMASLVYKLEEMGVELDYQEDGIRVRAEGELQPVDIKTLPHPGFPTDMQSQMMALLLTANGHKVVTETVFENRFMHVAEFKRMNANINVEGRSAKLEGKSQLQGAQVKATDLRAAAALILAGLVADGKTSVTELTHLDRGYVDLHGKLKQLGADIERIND
Experimental: (§1) Polymyxin, UDP-GlcNAc, D-Ala-D-Ala, PEP, ATP and Hepes were purchased from Sigma-Aldrich Co. (St Louis, MO, USA). UDP-MurNAc-L-Ala-D-Glu-m-DAP was obtained from BACWAN facility, School of Life Sciences, The University of Warwick, UK. MurA from E. coli and S. aureus were recombinant, expressed in E. coli, while MurF from E. coli and S. aureus were recombinant expressed in E. coli.
MurA inhibition was determined with the colorimetric malachite green method in which the release of orthophosphate generated during the reaction is measured. […] Time-dependent inhibition assays were also performed. MurA was preincubated with substrate UDP-GlcNAc and target compounds for 10 min at 37 °C, and then the reaction was started by the addition of the second substrate PEP, resulting in a mixture with a final volume of 50 µL as above described. MurF was preincubated with compounds for 10 min at 37 °C, and the reaction was started by the addition of the above-mentioned substrates to get a mixture with a final volume of 50 µL, as already described. In both experiments, after incubation for 15 min at 37 °C, the reaction was stopped by adding Biomol® reagent (100 µL, Enzo Life Sciences, Inc., Farmingdale, NY, USA). The absorbance was measured at 650 nm after 5 min in a microplate reader (Synergy H4). The final concentration of DMSO in the reaction mixture was 5% (v/v). Fosfomycin was used as a reference in MurA assay. The percentage of RA was calculated in comparison to negative controls containing only 5% DMSO. […] The results are expressed as mean ± standard error.

[3] = molecular target: T2, Escherichia coli MurA (Escherichia coli, UniProt P0A749); assay: MurA inhibition, colorimetric malachite green method; assay type: biochemical; settings: for remaining activity at 100 µM: 10 min, residual activity at 100 µM, read-out: RA % Escherichia coli MurA
T2 construct: made in house; host or cells: E. coli
Experimental: as §1
MurA inhibition was determined with the colorimetric malachite green method in which the release of orthophosphate generated during the reaction is measured. Briefly, 2.5 µL of each tested compound previously dissolved in DMSO at a concentration of […], were added in duplicate to 50 µL of the reaction mixture containing 50 mM HEPES pH 7.8, 0.005% Triton X-114, 200 µM UDP-GlcNAc, 100 µM PEP and purified MurA (200 nM) diluted in 50 mM Hepes at pH 7.8. The 50 µL reaction mixture for MurF inhibitory assay contained 50 mM Hepes pH 8.0, 50 mM MgCl2, 0.005% Triton X-114, 600 µM D-Ala-D-Ala, 100 µM UDP-MurNAc-L-Ala-D-Glu-m-DAP, 500 µM ATP and purified MurF (8 nM). Time-dependent inhibition assays were also performed. MurA was preincubated with substrate UDP-GlcNAc and target compounds for 10 min at 37 °C, and then the reaction was started by the addition of the second substrate PEP, resulting in a mixture with a final volume of 50 µL as above described. MurF was preincubated with compounds for 10 min at 37 °C, and the reaction was started by the addition of the above-mentioned substrates to get a mixture with a final volume of 50 µL, as already described. In both experiments, after incubation for 15 min at 37 °C, the reaction was stopped by adding Biomol® reagent (100 µL, Enzo Life Sciences, Inc., Farmingdale, NY, USA). The absorbance was measured at 650 nm after 5 min in a microplate reader (Synergy H4). The final concentration of DMSO in the reaction mixture was 5% (v/v). Fosfomycin was used as a reference in MurA assay. The percentage of RA was calculated in comparison to negative controls containing only 5% DMSO. […] The results are expressed as mean ± standard error.

[4] = test system: E. coli (ATCC 25922); assay: Antibacterial susceptibility testing, MIC by broth microdilution, alone or with polymyxin B; assay type: cell-based, Escherichia coli; settings: for MIC: Escherichia coli, read-out: MIC against E. coli; for MIC against E. coli with polymyxin B: with polymyxin B at sub-inhibitory concentration (half of the MIC, 0.49 µg/mL), permeabilized E. coli
Experimental: Overnight subcultures of the test organism carried out on plate count agar medium (PCA) were used.
After 24 h incubation at 37 °C with continuous shaking, absorbance was measured with an iMark micro-plate reader (Bio-Rad, Hercules, CA, USA) at 655 nm. Compound 1 was dissolved in DMSO, while compounds 4 and 6 were dissolved in ethanol or acetonitrile (ACN), respectively. Negative controls containing dissolution solvents at a final concentration of 2% or polymyxin B at 0.49 µg/mL were simultaneously carried out, and the growth was compared to the viability control, which contained only a culture medium. […] The large size of this glycopeptide antibiotic avoids its entrance into Gram-negative bacteria, while the addition of polymyxin B overcomes this inconvenience.

[5] = residual activity at 100 µM, time of preincubation: 10 min, read-out: RA % Staphylococcus aureus MurA
[6] = IC50 Escherichia coli MurA, time of preincubation: 10 min
[7] = IC50 Staphylococcus aureus MurA, time of preincubation: 10 min
[8] = ATCC25922, compound alone, 24 h, 37 °C, Mueller–Hinton broth
[9] = time of preincubation: 10 min, read-out: IC50 Staphylococcus aureus MurA (converted)
[10] = time of preincubation: 10 min, read-out: IC50 Escherichia coli MurA (converted)

T2 sequence (P0A749 whole entry): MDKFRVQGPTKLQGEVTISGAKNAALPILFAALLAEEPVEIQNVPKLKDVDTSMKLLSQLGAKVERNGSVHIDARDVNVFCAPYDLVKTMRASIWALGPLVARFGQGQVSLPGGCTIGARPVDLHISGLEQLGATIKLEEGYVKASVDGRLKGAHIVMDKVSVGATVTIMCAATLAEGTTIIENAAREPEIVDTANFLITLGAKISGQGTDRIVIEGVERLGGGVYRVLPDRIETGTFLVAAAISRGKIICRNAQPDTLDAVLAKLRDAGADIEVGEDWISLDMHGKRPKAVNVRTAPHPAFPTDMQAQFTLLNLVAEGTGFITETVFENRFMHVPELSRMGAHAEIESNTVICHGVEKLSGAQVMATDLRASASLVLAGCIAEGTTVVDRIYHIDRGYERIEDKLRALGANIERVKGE

COC(=O)[C@]1(C)CCC[C@]2(C)c3cc(O)c(/C(C)=N/O)cc3CC[C@@H]12 [Compound 12]
delay/reduction in the growth rate of MSSA and MRSA, until time [1]: up to 6 h
remaining activity at 100 µM [2, 5]: 72 to 100%

CC(C)c1cc2c(c(O)c1O)[C@@]1(C(=O)O)CCCC(C)(C)[C@@H]1CC2 [Compound 3, carnosic acid]
IC50 [3, 6]: 25 µM and 25.1 µM
IC50 [2, 7]: 12 µM and 12.3 µM

COC(=O)[C@]1(C)CCC[C@]2(C)c3cc(O)c(/C(C)=N/O)cc3/C(=N/O)C[C@@H]12 [Compound 14]
remaining activity at 100 µM [2, 5]: 72 to 100%

CN[C@H](CC(C)C)C(=O)N[C@H]1C(=O)N[C@@H](CC(N)=O)C(=O)N[C@H]2C(=O)N[C@H]3C(=O)N[C@H](C(=O)N[C@H](C(=O)O)c4cc(O)cc(O)c4-c4cc3ccc4O)[C@H](O)c3ccc(c(Cl)c3)Oc3cc2cc(c3O[C@@H]2O[C@H](CO)[C@@H](O)[C@H](O)[C@H]2O[C@H]2C[C@](C)(N)[C@H](O)[C@H](C)O2)Oc2ccc(cc2Cl)[C@H]1O [Vancomycin, vancomycin, reference compound]
MIC ([4]; ATCC25922, 24 h): 250 µg/mL (≈ 173 µM)
MIC against E. coli with polymyxin B [4]: 62.5 µg/mL

COC(=O)[C@]12CCCC(C)(C)[C@@H]1CCc1cc(C(C)C)c(O)c(O)c12 [Compound 4, 20-methyl carnosate]
remaining activity at 100 µM ([3]; time of preincubation: 10 min): 0 to 28%
IC50 ([3]; IC50 Escherichia coli MurA, time of preincubation = 0 min): 48 µM
IC50 [3, 6]: 2.8 µM
MIC [4, 8]: > 250 µg/mL
MIC against E. coli with polymyxin B [4]: 3.9 µg/mL
remaining activity at 100 µM ([2]; read-out: RA % Staphylococcus aureus MurA, residual activity at 100 µM, time of preincubation: 10 min): 0 to 28%
IC50 ([2]; IC50 Staphylococcus aureus MurA, time of preincubation = 0 min): 67 µM
IC50 [2, 7]: 3.4 µM

C[C@@H]1O[C@@H]1P(=O)(O)O [fosfomycin, reference compound]
remaining activity at 100 µM ([3]; time of preincubation: 10 min): 0%
IC50 [3, 6]: 0.21 µM
remaining activity at 100 µM [2, 5]: 0%
IC50 [2, 9]: 0.3 µM

CC/C(=N\O)c1cc2c(cc1O)[C@@]1(C)CCC[C@@](C)(C(=O)OC)[C@@H]1CC2 [Compound 13]
remaining activity at 100 µM [2, 5]: 72 to 100%

CC(C)c1cc2c(cc1O)[C@@]1(C)CCC[C@@](C)(C(=O)O)[C@@H]1CC2 [Compound 9, 12-hydroxy-dehydroabietic acid]
IC50 [3, 10]: 49.4 µM
IC50 [2, 7]: 55.2 µM

CC(C)c1cc2c(c(O)c1O)[C@@]13CCCC(C)(C)[C@@H]1C[C@@H]2OC3=O [Compound 1, carnosol]
IC50 ([3]; time of preincubation = 0 min, read-out: IC50 Escherichia coli MurA (converted)): 66 µM
IC50 [3, 10]: 2.8 µM
MIC [4, 8]: > 250 µg/mL
MIC against E. coli with polymyxin B [4]: 125 µg/mL
IC50 ([2]; time of preincubation = 0 min, read-out: IC50 Staphylococcus aureus MurA (converted)): 61 µM
IC50 [2, 9]: 1.1 µM

CC(C)c1cc2c3c(c1O)OC(=O)[C@@]31CCCC(C)(C)[C@@H]1CC2 [Compound 6, carnosic acid-γ-lactone]
IC50 [3, 6]: 4.8 µM
MIC [4, 8]: > 250 µg/mL
MIC against E. coli with polymyxin B [4]: 125 µg/mL
IC50 [2, 9]: 7.9 µM

CC(C)c1cc2c(c(O)c1O)[C@@]13CCCC(C)(C)[C@@H]1[C@H](OC3=O)[C@H]2O [Compound 2, rosmanol]
IC50 [3, 10]: 12.9 µM
IC50 [2, 9]: 5.7 µM
